The results in this text go back to article PMC4558462, “A new small molecule inhibitor of soluble guanylate cyclase” (Bioorganic & Medicinal Chemistry, 2015).

The test has as its target T1, purified bovine lung sGC (Bos taurus, UniProt P16068+P19687).
T1 construct: screened at 100 μM against purified bovine lung sGC; purchased Enzo lifesciences ALX-202-039-C005; host or cells: bovine lung
T1 sequence (P19687 1-691): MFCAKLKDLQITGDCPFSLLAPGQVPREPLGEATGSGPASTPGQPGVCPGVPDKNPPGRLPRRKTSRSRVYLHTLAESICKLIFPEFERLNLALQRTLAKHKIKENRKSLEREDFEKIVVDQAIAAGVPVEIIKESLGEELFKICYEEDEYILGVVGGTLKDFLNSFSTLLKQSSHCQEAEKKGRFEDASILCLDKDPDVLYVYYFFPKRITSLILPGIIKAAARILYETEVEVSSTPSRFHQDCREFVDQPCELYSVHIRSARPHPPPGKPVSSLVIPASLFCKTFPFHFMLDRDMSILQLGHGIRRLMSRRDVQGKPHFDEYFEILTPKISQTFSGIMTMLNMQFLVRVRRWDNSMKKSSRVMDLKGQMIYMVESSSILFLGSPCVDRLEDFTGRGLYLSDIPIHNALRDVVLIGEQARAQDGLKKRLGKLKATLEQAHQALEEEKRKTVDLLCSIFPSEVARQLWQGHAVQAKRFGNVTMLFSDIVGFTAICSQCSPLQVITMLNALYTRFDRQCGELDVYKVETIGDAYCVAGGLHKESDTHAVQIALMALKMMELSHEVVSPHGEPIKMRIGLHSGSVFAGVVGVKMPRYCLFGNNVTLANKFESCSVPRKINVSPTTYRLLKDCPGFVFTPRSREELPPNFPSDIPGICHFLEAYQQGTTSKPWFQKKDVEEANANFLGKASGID
T1 sequence (P16068 1-619): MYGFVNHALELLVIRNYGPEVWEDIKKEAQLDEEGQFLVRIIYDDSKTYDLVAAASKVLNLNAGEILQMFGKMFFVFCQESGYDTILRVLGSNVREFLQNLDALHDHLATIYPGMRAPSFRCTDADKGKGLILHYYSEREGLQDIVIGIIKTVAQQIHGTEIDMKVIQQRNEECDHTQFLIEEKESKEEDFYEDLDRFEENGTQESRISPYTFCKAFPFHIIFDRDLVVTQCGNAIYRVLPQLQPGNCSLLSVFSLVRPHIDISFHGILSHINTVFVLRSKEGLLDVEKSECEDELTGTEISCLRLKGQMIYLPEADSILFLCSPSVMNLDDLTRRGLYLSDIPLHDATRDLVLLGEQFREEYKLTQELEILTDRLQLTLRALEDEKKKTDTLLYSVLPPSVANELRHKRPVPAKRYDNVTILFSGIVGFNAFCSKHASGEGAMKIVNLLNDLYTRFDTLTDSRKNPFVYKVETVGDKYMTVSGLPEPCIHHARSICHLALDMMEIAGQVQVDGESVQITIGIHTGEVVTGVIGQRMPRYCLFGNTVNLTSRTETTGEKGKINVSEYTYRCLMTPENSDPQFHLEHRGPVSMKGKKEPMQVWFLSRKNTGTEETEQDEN
In words: Soluble guanylate cyclase activity assay (cGMP radioimmunoassay). Format: biochemical. Here is the method:
Virtual screening was performed by similarity searches using MACCS fingerprints at 85% and 75% Tanimoto of commercial libraries and the selected compounds were screened at 100 μM against purified bovine lung sGC using diethylamine NONOate (30 nM) as the NO donor. Enzyme activity was determined by measuring cGMP production using a standard cGMP [^3H] radioimmunoassay.[21,22]
[…] Compounds were added at 100 μM prior to adding the NO donor DEA/NO (30 nM) or clamped NO concentrations. cGMP generation was allowed to proceed for two minutes, after which aliquots were withdrawn and inactivated by boiling in 50 mM Tris, 4 mM EDTA buffer. cGMP formation was measured by a standard radioimmunoassay.

Read-outs that look alike come from different tables or passages of the source.

Take `O=[N+]([O-])c1ccc2nc(Nc3ccc(O)cc3)c(Nc3ccc(O)cc3)nc2c1` [Compound 10, 4,4′-((6-Nitroquinoxaline-2,3-diyl)bis(azanediyl))diphenol]: the Hill slope runs as follows: (GC activator cinaciguat 20 nM) 4; (GC activator cinaciguat 1 μM) 4. The IC50 is, setting by setting: (GC activator cinaciguat 20 nM, no NO, read-out: IC50 (μM) ± SE) 25 ± 4 µM; (GC activator cinaciguat 1 μM, no NO, read-out: IC50 (μM) ± SE) 37 ± 40 µM; (NO 0.3 nM, GTP 50 μM, read-out: IC50, NO-stimulated cGMP production by isolated sGC) 21 ± 3 µM; (NO 0.3 nM, GTP 200 μM, read-out: IC50, NO-stimulated cGMP production by isolated sGC) 33 ± 4 µM; (NO 0.3 nM, GTP 1000 μM, read-out: IC50, NO-stimulated cGMP production by isolated sGC) 33 ± 9 µM; (NO 10 nM, GTP 50 μM, read-out: IC50, NO-stimulated cGMP production by isolated sGC) 19 ± 2 µM. Also, the half-maximal inhibitory concentration (IC50) turned out to be 19 ± 1 µM (NO 10 nM, GTP 200 μM, read-out: IC50, NO-stimulated cGMP production by isolated sGC) and 34 ± 2 µM (NO 10 nM, GTP 1000 μM, read-out: IC50, NO-stimulated cGMP production by isolated sGC). The “inhibition of cGMP production after enzyme activation with cinaciguat (in words)” value (cinaciguat-activated, no NO) is “capable of inhibiting cGMP production”. Moreover, the inhibition at 100 µM amounted to 99% (read-out: % inhibition of sGC activity at 100 μM compound) and 56.2 ± 22.4% (read-out: sGC activity% inhibition at 100 μM).

As usually defined, the Hill slope is the slope factor of the fitted curve. Usually IC50 stands for the concentration needed to halve the response being measured. As a reminder, the inhibition is the share of the control response that was lost under treatment.
